Earlier results, collected in patent publication EP0072762B1, “Fluorinated diaminoalkene derivatives” (priority 1981, dated 1983).

Test system: tumor
Details: administered intravenously once or twice a week, cited from earlier work

## CC(C=NNC(=N)N)=NNC(=N)N [MGBG, methylglyoxal bis(guanylhydrazone)]
65 treated patients
  complete disappearance of the diseases: two of the 65 treated patients
Patients in advanced stages of various carcinomas, lymphoma, leukemia etc.
  regression of the tumor: measurable regression of the tumor in many of the patients treated
